Measured values taken from patent US9029414B2, “Triterpenoid compounds and methods of use thereof” (Biotechnology Research Corporation, priority 2008, dated 2015).

How the values were obtained:
[1] = system: MOG-induced IL-6 in primary splenocytes; assay: IL-6 Quantikine ELISA in primary splenocytes of EAE mice; format: cell-based; conditions: exogenous compound 30 μM; for amount of IL-6 in response to exogenous compound: splenocytes of compound-treated EAE mice (100 mg/kg); for reduction in the amount of MOG-induced IL-6: splenocytes of vehicle-treated EAE mice, MOG 25 μg/mL, 48 hrs
Protocol: On day 21, EAE mice were sacrificed by cervical dislocation and spleens were removed aseptically. The removed spleens were then cut with sterilized scissors and strained through […] mesh (BD Bioscience) with a plunger of 5 mL syringe (BD Bioscience) in 9 mL of RPMI 1640 (Invitrogen) with 100 U/mL penicillin and 100 μg/mL streptomycin (Sigma). The cell mixture was then added to 9 mL of Lympholyte (Cedarlane Laboratories) for gradient separation of splenocytes from red bloods cells by centrifugation at 1500 g for 20 min. After the centrifugation, the lympholyte layer containing splenocytes were carefully removed and washed with 10 mL of RPMI 1640 at 800 g for 10 min for three times. The isolated splenocytes were seeded onto different plate format and cultured with RPMI 1640 medium (Invitrogen) supplement with 10% heat inactivated fetal bovine serum (Invitrogen) and 100 U/mL penicillin and 100 μg/mL streptomycin at 37° C. CO2 incubator.
Splenocytes from EAE mice were cultured at the density of 1×10^6 cells in 12-well plates (Falcon) in the absence or presence of the MOG peptide (25 μg/mL) (Hooke Laboratories), DA001 and DA021 (30 μM) with RPMI 1640 medium (Invitrogen) supplement with 10% heat inactivated fetal bovine serum (Invitrogen) and 100 U/mL penicillin and 100 μg/mL streptomycin (Sigma) for 48 h. After 48 h, the supernatants were collected by pelleting the cells at 300 g for 10 min at 4° C. 50 μL of the each sample was added to the microtiter plate provided by the manufacturer of the Quantikine ELISA assay kit (R and D systems). Additional 50 μL of assay diluents buffer was added and incubated at room temperature for 2 h. After the incubation, the supernatants were discarded and the cells were washed with wash buffer. […] Subsequently, 100 μL of stop solution was added to each well and the plate was read in 450 nm wavelength on a microplate reader (Dynex Revelation 2.2).
(§1) Cells were cultured in RPMI 1640 medium supplement with 10% heat inactivated fetal bovine serum and penicillin/streptomycin, in the absence or presence of MOG (25 μg/mL, Ex) with or without DA001 or DA021 (30 μM, Ex). […] The amount of IL-6 was calculated based on the standard curve established during the assay. […]
as §1, with “DA001” for “DA001 or DA021”
as §1, with “without” for “without DA001 or”

[2] = system: NGF, BDNF, NT-3 and NT-4 expression in cortical neurons; assay: Neurotrophin gene expression (real-time PCR) in cortical neurons following NMDA treatment; format: cell-based; conditions: 24 hrs pre-treatment, then NMDA 20 μM 20 min; vs DMSO+NMDA
Protocol: Cortical neurons were incubated with DA001 or the DMSO control for 24 hrs, followed by treatment with NMDA (20 μM) or water for 20 min. Gene expression was normalized against the house-keeping gene, hypoxanthine phosphoribosyltransferase 1 (HPRT1) and glyceraldehyde 3-phosphate dehydrogenase (GAPDH) and compared to the control (DMSO) with NMDA treatment. Relative changes in gene expression induced by DA001+NMDA was compared with DMSO+NMDA.
Cortical neurons of 11 DIV-12 DIV were pre-incubated with DA001 or DMSO for 24 hours. Cells were washed in Locke's medium without magnesium for 15 min, followed by the treatment of NMDA (20 μM) or water for 20 min. Neurons were incubated with normal growth medium and total RNA were extracted at different time intervals after or without NMDA treatment. Total RNA was extracted using RNeasy Mini kit (Qiagen) according to the manufacturer's protocol, and was reverse-transcribed into single-stranded cDNA with SuperScript II Reverse Transcriptase (Invitrogen) and oligo-dT primers. Real-time Quantitative PCR was performed using Power SYBR Green PCR Master Mix (Applied Biosystems) on the Mx3000P Real-Time PCR System (Stratagene). Thermal cycling was initiated with a 10-min denaturation step at 95° C., followed by 40 cycles of 95° C. for 30 sec, 60° C. for 1 min and 72° C. for 30 sec. The final product was subjected to a Meltcurve detection at the end of the reaction. Regulation of the gene expression was normalized against home gene, hypoxanthine phosphoribosyltransferase 1 (HPRT1) and glyceraldehyde 3-phosphate dehydrogenase (GAPDH). Real-time PCR primers are as follows.
Cortical neurons were pre-treated with DA001 after which the cells were subjected to NMDA insult. The expression of neurotrophins was measured at three different time intervals. DA001 induced NGF, BDNF and NT-3 expression but not NT-4 under the same conditions. FIG. 3 illustrates that cortical neurons were incubated with DA001 or the DMSO control for 24 hrs, followed by treatment with NMDA (20 μM) or water for 20 min. […]

**Q.** Which results are given for `C=C(C)[C@@H]1CC[C@]2(/C=N/O)CC[C@]3(C)C(CCC4[C@@]5(C)CCC(=O)[C@@](C)(CO)[C@@H]5CC[C@]43C)C12` (stereo partly shown) [DA021]?
**A.** amount of IL-6 in response to exogenous compound [1]: markedly decreased; reduction in the amount of MOG-induced IL-6 [1]: 79%

**Q.** Which results are given for `C=C(C)[C@@H]1CC[C@]2(C(=O)O)CC[C@]3(C)C(CC[C@@H]4[C@@]5(C)CC[C@H](O[C@@H]6OC[C@H](O)[C@H](O)[C@H]6O[C@@H]6O[C@@H](C)[C@H](O)[C@@H](O)[C@H]6O)[C@@](C)(CO)[C@@H]5CC[C@]43C)[C@@H]12` (stereo partly drawn) [DA001, 3-O-[α-L-rhamnopyranosyl-(1→2)-α-L-arabinopyranosyl]-3,23-dihydroxy-20(29)-lupen-28-oic acid]?
**A.** amount of IL-6 in response to exogenous compound [1]: markedly decreased; reduction in the amount of MOG-induced IL-6 [1]: 73%; BDNF expression [2]: induced; NGF expression [2]: induced; NT-3 expression [2]: induced
